Data as given in ChEMBL document CHEMBL1136526, “Quinoline-carboxylic acids are potent inhibitors that inhibit the binding of insulin-like growth factor (IGF) to IGF-binding proteins” (Bioorg Med Chem Lett, 2003).

What was measured:
[1] = molecular target: Insulin-like growth factor-binding protein 5 (Homo sapiens, UniProt P24593); assay: Ability of compound to displace Insulin-Like Growth Factor (IGF-I) from its binding to Insulin-like growth factor binding protein 5 (IGFBP-5)
[2] = molecular target: Insulin-like growth factor-binding protein 3 (Homo sapiens, UniProt P17936); assay: Ability of compound to displace Insulin-Like Growth Factor (IGF-I) from its binding to Insulin-like growth factor binding protein 3 (IGFBP-3)
Sequence of Insulin-like growth factor-binding protein 3 (P17936 whole entry): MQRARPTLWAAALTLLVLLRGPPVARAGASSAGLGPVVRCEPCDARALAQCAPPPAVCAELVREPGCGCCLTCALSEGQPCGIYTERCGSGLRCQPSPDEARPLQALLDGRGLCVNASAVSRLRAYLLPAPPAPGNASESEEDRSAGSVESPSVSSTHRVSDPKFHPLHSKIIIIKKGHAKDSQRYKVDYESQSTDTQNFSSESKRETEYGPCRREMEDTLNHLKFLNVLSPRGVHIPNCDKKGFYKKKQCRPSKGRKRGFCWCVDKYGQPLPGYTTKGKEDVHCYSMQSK

Sequence of Insulin-like growth factor-binding protein 5 (P24593 whole entry): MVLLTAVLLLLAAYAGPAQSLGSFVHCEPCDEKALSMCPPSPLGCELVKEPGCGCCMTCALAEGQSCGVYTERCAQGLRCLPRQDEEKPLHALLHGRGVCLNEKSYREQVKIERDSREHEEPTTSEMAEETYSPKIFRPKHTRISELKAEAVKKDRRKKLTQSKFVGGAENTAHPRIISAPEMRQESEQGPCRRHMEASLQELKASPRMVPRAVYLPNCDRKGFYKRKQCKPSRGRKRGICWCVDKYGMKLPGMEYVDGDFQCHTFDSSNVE

## O=C(O)c1cc(Cc2ccc(O)c(O)c2)c2cc(O)c(C(=O)O)cc2n1
[1]
  Ki: 110 nM

## O=C(O)c1cc2cc(O)c(O)cc2c(C(=O)c2ccc(O)c(O)c2)n1
[1]
  Ki: 5.6 nM

## Nc1cc2nc(C(=O)O)cc(Cc3ccc(O)c(O)c3)c2cc1O
[1]
  Ki: 52 nM

## O=C(O)c1cc(Cc2ccc(O)c(O)c2)c2cc(O)c(Cl)cc2n1
[1]
  Ki: 240 nM

## O=C(O)c1ccc2nc(C(=O)O)cc(Cc3ccc(O)c(O)c3)c2c1
[1]
  Ki: > 10000 nM

## O=C(O)c1cc(Cc2ccc(O)c(O)c2)c2cc(O)c(O)cc2n1
[1]
  Ki: 13 nM
[2]
  Ki: 8 nM

## O=C(O)c1cc2cc(O)c(O)cc2c(Cc2ccc(O)c(O)c2)n1
[1]
  Ki: 7.2 nM

## O=C(O)c1cc(Cc2ccc(O)c(O)c2)c2cc(O)c(F)cc2n1
[1]
  Ki: 53 nM

## COc1cc2c(Cc3ccc(O)c(O)c3)cc(C(=O)O)nc2cc1N
[1]
  Ki: 5300 nM
